According to ChEMBL document CHEMBL1155949, “Blockade of glucocorticoid excess at the tissue level: inhibitors of 11beta-hydroxysteroid dehydrogenase type 1 as a therapy for type 2 diabetes” (J Med Chem, 2008):
pKi: −log10 of the molar value.

Columns and labels:
[1] = test system: Corticosteroid 11-beta-dehydrogenase isozyme 2 (Homo sapiens); test: Inhibition of 11beta-HSD2 in human SW620 cells at 10 uM; details: SW-620
[2] = Inhibition of cynomolgus monkey 11beta-HSD1 mediated conversion of prednisone to prednisolone; design: species or system Macaca fascicularis

inhibition [1] | pKi [2] | SMILES
12% | – | O=C(Nc1cccc(C(=O)N2CCC[C@H]3CCCC[C@@H]32)c1)c1ccccc1
– | 8.64 | N#Cc1ccc(-c2ccc(S(=O)(=O)Nc3cccc(N)n3)cc2)cc1
